Assay results: US20170190726A9, “PRODRUG FOR RELEASE OF CISPLATIN AND CYCLOOXYGENASE INHIBITOR” (priority 2013, published 2017)

Key:
ovine COX-2 = target: T1, ovine COX-2 (Ovis aries, UniProt P79208); test: In vitro COX inhibition assay (EIA), COX-2; format: biochemical; details: ovine COX-2, EIA, 0.75-2 mM, aspirin as positive control
T1 construct: purchased Cayman Chemicals 560101
T1 sequence (P79208 17-603): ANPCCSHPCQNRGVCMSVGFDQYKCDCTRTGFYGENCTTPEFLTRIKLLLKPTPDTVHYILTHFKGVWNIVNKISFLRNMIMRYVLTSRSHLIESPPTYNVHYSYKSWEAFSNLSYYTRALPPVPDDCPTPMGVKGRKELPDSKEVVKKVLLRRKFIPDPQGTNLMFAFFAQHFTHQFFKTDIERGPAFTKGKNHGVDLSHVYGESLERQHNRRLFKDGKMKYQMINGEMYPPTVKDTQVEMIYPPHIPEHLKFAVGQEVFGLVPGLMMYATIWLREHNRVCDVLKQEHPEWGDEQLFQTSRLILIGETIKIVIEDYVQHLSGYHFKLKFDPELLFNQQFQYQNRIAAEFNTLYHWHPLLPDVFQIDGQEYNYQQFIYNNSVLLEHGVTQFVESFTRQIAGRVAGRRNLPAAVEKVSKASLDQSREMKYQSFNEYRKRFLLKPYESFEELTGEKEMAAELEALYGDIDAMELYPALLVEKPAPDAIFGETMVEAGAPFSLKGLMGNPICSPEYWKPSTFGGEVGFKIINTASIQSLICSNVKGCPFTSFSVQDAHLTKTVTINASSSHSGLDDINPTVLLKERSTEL
Experimental: An enzyme immunoassay (EIA) kit from Cayman Chemicals (catalogue number 560101) was used to assess the ability of Platin-A to inhibit ovine COX-1 and COX-2. COX inhibition assay was performed as per the manufacturer protocol. All stock solutions were prepared following manufactures instruction. This inhibition assay was carried out using a two-step process: COX reaction and EIA. COX reaction involved preparation of following samples.
(i) Background samples: COX-1 and COX-2 were inactivated by transferring 20 μL of each enzyme to an eppendorf tube and placing the tube in boiling water for 3 min. […] (ii) COX-1 or COX-2 100% initial activity samples: 950 μL of reaction buffer, 10 μL of heme, 10 μL of COX-1 or COX-2, and 20 μL of reaction buffer were added to each test tube. (iii) COX-1 or COX-2 inhibitor samples: 950 μL of reaction buffer, 10 μL of heme, 10 μL of COX-1 or COX-2 and 20 μL of COX-1 and COX-2 inhibitors under investigation, aspirin and Platin-A of different concentrations (0.25, 0.5, 0.75, 1, and 1.5 mM for COX-1; 0.75, 1, 1.25, 1.5, and 2 mM for COX-2) were added to each test tube.
All the samples were incubated for 5 min in water bath at 37° C. […]
For EIA, 100 μL of EIA buffer was added to non-specific binding well and 50 μL of EIA buffer to maximum binding wells. […] Absorbance was recorded at a wavelength of 410 nm using a plate reader.

PC3 cells = test: Apoptosis detection by annexin V/PI assay; format: cell-based, Human; details: 25 μM, 6 h
Text: High expression of COX-2 is found in various cancers, however, for PCa cell lines as well as tissue, contradictory results exist. We therefore tested anti-proliferative properties of Platin-A on androgen-responsive LNCaP and androgenunresponsive PC3 and DU145 PCa cells that differ in their malignant potentials. […] However, in LNCaP cells, Platin-A activity was better than an equimolar mixture of cisplatin and aspirin. In general, Pt(IV) compounds are less cytotoxic compared to their active Pt(II) form. […] To evaluate whether Platin-A-dependent inhibition of cancer cell proliferation is associated with apoptosis, Alexa Fluor® 488 annexin V/propidium iodide (PI) staining assay was carried out in PC3 cells and the data were analyzed by fluorescence assisted cell sorting. […]
PC3 cells were seeded at a density of 1×10^6 cells/mL on each well of a six well plate and allowed to grow overnight. […] Cell density was determined and cells were resuspended in 1× annexinVbinding buffer to 1×10^6 cells/mL preparing a sufficient volume to have 100 μL per assay. […] After the incubation period, 400 μL of 1× annexin-binding buffer was added to each sample, samples were gently mixed keeping the samples on ice, and the samples were analyzed on the flow cytometer immediately.

## CC(=O)Oc1ccccc1C(=O)[O][Pt]([NH2])([NH2])([OH])([Cl])[Cl] [Platin-A]
Ovine COX-2
  COX-2 inhibition: very similar inhibition of both COX-1 and COX-2 as shown by aspirin
PC3 cells
  apoptosis induction (annexin V/PI): High level of apoptosis was induced
